Results reported in the NIST ThermoML archive (doi:10.1016/j.jct.2007.03.005).
± gives the expanded uncertainty stated by the source.

What was measured:
[1] = DTA
[2] = Molar enthalpy of transition or fusion; settings: DSC

SMILES	Normal melting temperature ([1]; Crystal 1) [°C]	Triple point temperature ([1]; Crystal 2) [K]	Molar enthalpy of transition or fusion ([2]; Crystal 1) [kcal/mol]	Normal melting temperature ([1]; Crystal) [°C]	Molar enthalpy of transition or fusion ([2]; Crystal) [kcal/mol]	other results
N#CCCCCC#N [hexanedinitrile]	1.89 ± 0.49	270.25 ± 1.9	4.31 ± 0.153			
N#CCCCC#N [pentanedinitrile]				-31.10 ± 0.5	2.88 ± 0.189	
N#CCCCCCC#N [heptanedinitrile]	-31.4 ± 0.39	236.72 ± 1.8	3.59 ± 0.406			
N#CCC#N [propanedinitrile]	31.89 ± 0.55	303.64 ± 2.1	2.56 ± 0.11			Triple point temperature ([1]; Crystal 3): 294.24 ± 1.1 K; Triple point temperature ([1]; Crystal 4): 260.9 ± 1.6 K; Molar enthalpy of transition or fusion ([2]; Crystal 4): 0.103 ± 0.0287 kcal/mol
N#CCCCCCCCCCCCCC#N [tetradecanedinitrile]	36.40 ± 0.8	261.05 ± 0.56	9.6 ± 0.227			Molar enthalpy of transition or fusion ([2]; Crystal 2): 0.423 ± 0.0741 kcal/mol
N#CCCCCCCCCCC#N [undecanodinitrile]				-7.01 ± 0.73	6.22 ± 0.406	
N#CCCC#N [butanedinitrile]	57.11 ± 1.4	233.59 ± 0.53	0.896 ± 0.11			Molar enthalpy of transition or fusion ([2]; Crystal 2): 1.46 ± 0.0813 kcal/mol
N#CCCCCCCCCC#N [decanedinitrile]	8.03 ± 0.46	278.02 ± 1.9	6.73 ± 0.153			
N#CCCCCCCC#N [octanedinitrile]	-4.22 ± 1.1	265.82 ± 2.5	5.25 ± 0.148			
N#CCCCCCCCCCCC#N [dodecanedinitrile]				21.08 ± 0.48	8.21 ± 0.263	
N#CCCCCCCCC#N [nonanedinitrile]				-22.01 ± 0.55	4.46 ± 0.263	
